Columns and labels:
[1] = target: T1, human serum albumin (HSA) (Homo sapiens, UniProt P02768); assay: intrinsic fluorescence quenching (Stern-Volmer, apparent Ka), with displacement of fluorescent site probes; assay type: binding
T1 construct: gene ALB

[2] = target: T1, human serum albumin (HSA); assay: probe fluorescence enhancement and blue shift on binding; displaced by apocynin

T1 sequence (P02768 25-609): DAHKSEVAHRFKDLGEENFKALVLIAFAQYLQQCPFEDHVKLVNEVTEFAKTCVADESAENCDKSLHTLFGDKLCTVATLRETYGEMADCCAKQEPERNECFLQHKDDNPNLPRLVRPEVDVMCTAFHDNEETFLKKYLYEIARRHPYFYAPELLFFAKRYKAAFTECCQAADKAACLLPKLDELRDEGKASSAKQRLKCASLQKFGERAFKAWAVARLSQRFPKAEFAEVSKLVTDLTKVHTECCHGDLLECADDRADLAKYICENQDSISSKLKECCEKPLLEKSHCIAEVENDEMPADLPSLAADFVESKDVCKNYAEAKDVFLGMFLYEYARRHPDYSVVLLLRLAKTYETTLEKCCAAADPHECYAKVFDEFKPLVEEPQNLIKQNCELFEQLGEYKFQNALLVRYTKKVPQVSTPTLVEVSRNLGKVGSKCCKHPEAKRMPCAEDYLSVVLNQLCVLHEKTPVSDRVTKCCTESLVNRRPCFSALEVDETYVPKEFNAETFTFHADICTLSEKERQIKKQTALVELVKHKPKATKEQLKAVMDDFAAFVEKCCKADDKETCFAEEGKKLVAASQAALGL

Row | Structure (SMILES) | Kd [1] [µM] | probe fluorescence enhancement and blue shift on binding; displaced by apocynin [2]
1 | COc1cc(C(C)=O)ccc1O [APO, 4-hydroxy-3-methoxyacetophenone] | 45.7 | –
2 | CN(C)c1cccc2c(S(=O)(=O)NCC(=O)O)cccc12 [DG, dansylglycine] | – | apocynin was able to displace both fluorescent probes, but a greater effect was observed using DNSA
3 | CN(C)c1cccc2c(S(N)(=O)=O)cccc12 [DNSA, 5-(dimethylamino)-1-naphthalenesulfonamide] | – | binding of these probes to albumin provoked a significant increase in their fluorescence quantum yield
